Molecular target: T1, Prothrombin (Homo sapiens, UniProt P00734)
Experiment: Binding activity against human alpha thrombin
Details: not given

Row | IC50 [nM] | SMILES
1 | 4.5 | CN[C@@H](C(=O)N1CCC[C@H]1C(=O)N[C@@H](CCCN=C(N)N)C(=O)c1nc2ccccc2s1)C(c1ccccc1)c1ccccc1

Molecular target: T2, Cathepsin G (Homo sapiens) (UniProt P08311)
T2 sequence (whole entry): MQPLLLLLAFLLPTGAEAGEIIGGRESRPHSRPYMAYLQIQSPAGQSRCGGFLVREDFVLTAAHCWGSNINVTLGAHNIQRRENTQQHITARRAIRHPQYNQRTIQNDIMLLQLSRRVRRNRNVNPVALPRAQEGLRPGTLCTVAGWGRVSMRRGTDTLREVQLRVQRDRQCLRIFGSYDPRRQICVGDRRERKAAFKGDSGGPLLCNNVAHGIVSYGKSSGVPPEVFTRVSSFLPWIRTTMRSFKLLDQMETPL
Experiment: Inhibitory activity against human Cathepsin G at 100 uM; Not active
Details: not given

Row | inhibition [%] | SMILES
2 | < 50 | O=P(O)(O)C(c1cccc2ccccc12)C(O)c1ccc2ccccc2c1 (stereo not drawn)
3 | < 50 | O=C(Cc1ccc2ccccc2c1)C(c1cccc2ccccc12)P(=O)(O)O (stereo not drawn)
4 | < 50 | O=P(O)(O)C(c1cccc2ccccc12)S(=O)(=O)c1ccc2ccccc2c1 (stereo not drawn)
5 | < 50 | O=P(O)(O)C(Cc1ccc2ccccc2c1)c1cccc2ccccc12 (stereo not drawn)
6 | < 50 | O=C(c1ccc2ccccc2c1)C(c1ccccc1)P(=O)(O)O (stereo not drawn)
7 | < 50 | O=C(c1cccc2ccccc12)C(c1cccc2ccccc12)P(=O)(O)O (stereo not drawn)
8 | < 50 | CC(C(=O)c1ccc2ccccc2c1)(c1cccc2ccccc12)P(=O)(O)O (stereo not drawn)
9 | < 50 | O=C(c1ccc2ccccc2c1)C(c1ccc2ccccc2c1)P(=O)(O)O (stereo not drawn)

Molecular target: T3, Cathepsin G (Homo sapiens, UniProt P08311)
T3 sequence (P08311 whole entry): T2 sequence (whole entry)
Experiment: Inhibitory activity against human Cathepsin G
Details: not given

Row | SMILES | IC50 [nM]
10 | CN(CC(=O)NCC(c1ccccc1)c1ccccc1)C(=O)c1cc2ccccc2cc1C(=O)C(c1cccc2ccccc12)P(=O)(O)O (stereo not drawn) | 500
11 | O=C(c1ccc2ccccc2c1)C(c1cccc2ccccc12)P(=O)(O)O (stereo not drawn) | 4100

Results, then the compound that gave them:

Row | IC50 [nM] | SMILES
12 | 1300 | CN(CC(=O)NCCc1ccccc1)C(=O)c1cc2ccccc2cc1C(=O)C(c1cccc2ccccc12)P(=O)(O)O (stereo not drawn)
13 | 1000 | CN(Cc1ccccc1)C(=O)c1cc2ccccc2cc1C(=O)C(c1cccc2ccccc12)P(=O)(O)O (stereo not drawn)

Molecular target: Tryptase (Homo sapiens, UniProt Q9BZJ3+Q15661+Q9NRR2)
Experiment: Binding affinity against human alpha tryptase
Type: protein assay
Details: not given

Row | Ki [nM] | SMILES
14 | 10 | CC(=O)N1C[C@H](O)C[C@H]1C(=O)N[C@@H](CCCN=C(N)N)C(=O)c1nc2ccccc2s1
15 | 88 | N=C(N)NCCC[C@H](NC(=O)C1CCCC1)C(=O)c1nc2ccccc2s1

Tested on: not listed separately
Experiment: Oral bioavailability
Type: ADME, organism-based
Details: eutheria, in vivo

Row | SMILES | bioavailability [%]
16 | CN[C@H](Cc1ccccc1)C(=O)N1CCC[C@H]1C(=O)N[C@@H](CCCNC(=N)N)C(=O)c1nc2ccc(C(=O)O)cc2s1 | 3
17 | CN[C@H](Cc1ccccc1)C(=O)N1CCC[C@H]1C(=O)N[C@@H](CCCN=C(N)N)C(=O)c1nc2ccccc2s1 | 1

Tested on: Oryctolagus cuniculus
Experiment: In vivo antithrombotic activity using rabbit thrombosis model
Type: functional
Details: not given

Row | SMILES | ED50 [mg/kg]
18 | CN[C@H](Cc1ccccc1)C(=O)N1CCC[C@H]1C(=O)N[C@@H](CCCNC(=N)N)C(=O)c1nc2ccc(C(=O)O)cc2s1 | 0.3
19 | CN[C@H](Cc1ccccc1)C(=O)N1CCC[C@H]1C(=O)N[C@H](C=O)CCCNC(=N)N | 0.13
20 | CN[C@H](Cc1ccccc1)C(=O)N1CCC[C@H]1C(=O)N[C@@H](CCCN=C(N)N)C(=O)c1nc2ccccc2s1 | 0.29

Tested on: Canis familiaris
Experiment: In vivo antithrombotic activity using canine thrombosis model
Type: functional
Details: Canis lupus familiaris

Row | SMILES | ED50 [mg/kg]
21 | CN[C@H](Cc1ccccc1)C(=O)N1CCC[C@H]1C(=O)N[C@@H](CCCNC(=N)N)C(=O)c1nc2ccc(C(=O)O)cc2s1 | 0.47

Molecular target: T1, Prothrombin
Experiment: Binding affinity to human thrombin
Details: not given

Row | SMILES | Ki [nM]
22 | N=C(N)NCCC[C@@H]1NC(=O)C2CCCN2C(=O)[C@@H](NC(=O)Cc2ccccc2)CNC(=O)/C=C/[C@H](Cc2ccc(O)cc2)NC(=O)[C@@H](Cc2ccccc2)NC(=O)C1=O (stereo partly drawn) | 3.1
23 | N=C(N)NCCC[C@@H]1NC(=O)C2CCCN2C(=O)[C@@H](NCCc2ccccc2)CNC(=O)/C=C/[C@H](Cc2ccc(O)cc2)NC(=O)[C@@H](Cc2ccccc2)NC(=O)C1=O (stereo partly drawn) | 1.5
24 | N=C(N)NCCC[C@@H]1NC(=O)C2CCCN2C(=O)[C@@H](NC=O)CNC(=O)/C=C/[C@H](Cc2ccc(O)cc2)NC(=O)[C@@H](Cc2ccccc2)NC(=O)C1=O (stereo partly drawn) | 4.1
25 | N=C(N)NCCC[C@@H]1NC(=O)C2CCCN2C(=O)[C@@H](Cc2ccccc2)NC(=O)CCCCCCCNC(=O)C1=O (stereo partly drawn) | 24
26 | N=C(N)NCCC[C@@H]1NC(=O)[C@@H]2CCCN2C(=O)[C@@H](NC=O)NC(=O)CCCCCCNC(=O)C1=O | 260
27 | CN[C@H](Cc1ccccc1)C(=O)N1CCC[C@H]1C(=O)N[C@@H](CCCN=C(N)N)C(=O)c1nc2ccccc2s1 | 0.2

Other lines, results leading:

Row | Ki [nM] | SMILES
28 | 6.2 | CN[C@H](Cc1ccccc1)C(=O)N1CCC[C@H]1C(=O)N[C@@H](CCCN=C(N)N)C(=O)c1nc2ccccc2o1
29 | 200 | CN[C@H](Cc1ccccc1)C(=O)N1CCC[C@H]1C(=O)N[C@@H](CCCN=C(N)N)C(=O)c1nccn1C
30 | 9.6 | CN[C@H](Cc1ccccc1)C(=O)N1CCC[C@H]1C(=O)N[C@@H](CCCNC(=N)N)C(=O)c1nc2ccccc2[nH]1
31 | 2.1 | CN[C@H](Cc1ccccc1)C(=O)N1CCC[C@H]1C(=O)N[C@@H](CCCNC(=N)N)C(=O)c1nccs1
32 | 0.00065 | CN[C@@H](C(=O)N1CCC[C@H]1C(=O)N[C@@H](CCCN=C(N)N)C(=O)c1nc2ccccc2s1)C(c1ccccc1)c1ccccc1
33 | 15 | CN[C@H](Cc1ccccc1)C(=O)N1CCC[C@H]1C(=O)N[C@@H](CCCN=C(N)N)C(=O)c1nc(O)c2ccccc2n1

Source: ChEMBL document CHEMBL1148408, “Inhibitors of serine proteases as potential therapeutic agents: the road from thrombin to tryptase to cathepsin G” (J Med Chem, 2004)
